# Target: T1, human GPR119 receptor (Homo sapiens, UniProt Q8TDV5, S329A/T327A)
# T1 construct: N-terminal leader […]; expressed in transfected cells
# T1 sequence (Q8TDV5 with tags, fused parts or gaps T327A/S329A): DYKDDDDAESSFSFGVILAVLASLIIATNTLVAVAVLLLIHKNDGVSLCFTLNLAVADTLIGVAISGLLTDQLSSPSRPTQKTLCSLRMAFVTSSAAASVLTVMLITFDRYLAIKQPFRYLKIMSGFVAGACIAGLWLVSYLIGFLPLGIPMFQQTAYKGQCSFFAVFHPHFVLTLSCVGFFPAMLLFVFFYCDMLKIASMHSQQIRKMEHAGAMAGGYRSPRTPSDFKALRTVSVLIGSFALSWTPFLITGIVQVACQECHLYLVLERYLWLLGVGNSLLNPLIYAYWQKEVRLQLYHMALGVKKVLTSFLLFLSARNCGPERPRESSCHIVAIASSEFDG
# Test: cAMP assay (LANCE cAMP-384) in HEK293 cells stably expressing mutant human GPR119 receptor
# Type: cell-based
# Settings: HEK293, 20 min; at 10 μM; printed in EC50 column of the 36th table; read-out: stimulation in % at 10 μM
# Method: Quantitative detection of cAMP accumulation from cells expressing human GPR119 receptor was achieved using Perkin Elmer's LANCE cAMP-384 Kit (Cat#AD0264) according to the manufacturer's protocol. Briefly, HEK293 cells stably expressing a mutant form of the human GPR119 receptor (Methionine 1 replaced with the amino acid sequence […] (SEQ ID NO: 1), and T327 & S329 changed to alanines) were grown to 50-70% confluency in cell culture media (DMEM, 10% heat inactivated Fetal Bovine Serum, 50 I.U./mL penicillin, 50 μg/mL streptomycin, 10 mM HEPES, 20 μg/mL G418 Sulfate). On the day of the assay, GPR119 stable HEK293 cells were lifted from the tissue culture plate and 1000 cells/well were incubated along with various concentrations of test compounds for 20 min at 37° C. Detection Buffer (50mM HEPES, 10mM calcium chloride, 0.35% Triton X-100, 1 mg/mL BSA) containing cAMP-specific antibody was then added to all wells and allowed to equilibrate in the dark for 10 minutes at room temperature. Upon equilibration, Detection Buffer containing europium-labeled cAMP tracer complex was added to all wells and allowed to react for 1 hour at room temperature. After 1 hour, bound europium-labeled cAMP tracer was measured using a Perkin Elmer ViewLux. The quantity of cAMP generated in each well was derived from a standard curve. EC50 was determined using nonlinear regression analysis of the cAMP values over a range of agonist concentration (12 points spanning the range from 30 μM to 100pM).
# For some compounds for which no EC50 value could be determined, the efficacy is provided at a single concentration (10 μM) yielding % stimulation values.
row,SMILES,activation at 10 µM [%]
1,CS(=O)(=O)c1ccc(N2CCC(=NOC3CCN(Cc4ccc5c(c4)OCO5)CC3)CC2)c(F)c1 [Example 66-37],87
2,CS(=O)(=O)c1ccc(N2CCC(=NOC3CCN(Cc4ccc5c(c4)CCO5)CC3)CC2)c(F)c1 [Example 66-35],61
3,Cc1ccc(CN2CCC(ON=C3CCN(c4ccc(S(C)(=O)=O)cc4F)CC3)CC2)c(F)c1F [Example 66-48],99

# Same assay, conditions: HEK293, 20 min; single concentration 10 μM; given where no EC50 value could be determined; read-out: % stimulation at 10 μM
row,SMILES,activation at 10 µM [%]
1,CNCc1cc(F)c(N2CCC(=NOC3CCN(C(=O)OC(C)C)CC3)CC2)cc1F [Example 5-6],78
2,CC(C)OC(=O)N1CCC(ON=C2CCN(c3cc(Br)ccn3)CC2)CC1 [Example 2-67],54

# Same assay, conditions: cAMP accumulation, HEK293 cells stably expressing mutant human GPR119; read-out: EC50
row,SMILES,EC50 [nM]
1,"CC(C)OC(=O)N1CCC(ON=C2CCN(c3cc(F)c([S+](C)[O-])cc3F)CC2)CC1 (stereo not drawn) [Example 43-1, 4-[1-(2,5-Difluoro-4-methanesulfinyl-phenyl)-piperidin-4-ylideneaminooxy]-piperidine-1-carboxylic acid isopropyl ester]",58
2,"Cc1ncccc1N1CCC(=NOC2CCN(C(=O)OC(C)C)CC2)CC1 [Example 4-1, Isopropyl 4-(2′-Methyl-2,3,5,6-tetrahydro-[1,3′]bipyridinyl-4-ylideneaminooxy)piperidine-1-carboxylate]",4800
3,"CC(C)OC(=O)N1CCC(ON=C2CCN(c3cc(F)c(/C=C/C(=O)O)cc3F)CC2)CC1 [Example 40-1, 4-{1-[4-((E)-2-Carboxy-vinyl)-2,5-difluoro-phenyl]-piperidin-4-ylideneaminooxy}-piperidine-1-carboxylic acid isopropyl ester]",2570
4,CC(C)OC(=O)N1CCC(ON=C2CCN(c3ccc(F)c(F)n3)CC2)CC1 [Example 2-71],2590
5,CC(C)OC(=O)N1CCC(ON=C2CCN(c3nc(Cl)ncc3F)CC2)CC1 [Example 2-73],110
6,CC(C)OC(=O)N1CCC(ON=C2CCN(c3cc(F)c(-c4ccsc4)cc3F)CC2)CC1 [Example 27-12],245
7,CC(C)OC(=O)N1CCC(ON=C2CCN(c3nccnc3Cl)CC2)CC1 [Example 2-10],363
8,"CC(C)OC(=O)N1CCC(ON=C2CCN(c3cc(F)c(CN4CCCC4)cc3F)CC2)CC1 [Example 5-1, 4-[1-(2,5-Difluoro-4-pyrrolidin-1-ylmethyl-phenyl)-piperidin-4-ylideneaminooxy]-piperidine-1-carboxylic acid isopropyl ester]",7830
9,CC(C)OC(=O)N1CCC(ON=C2CCN(c3cc(F)c(-c4nccs4)cc3F)CC2)CC1 [Example 27-18],137
10,CC(C)OC(=O)N1CCC(ON=C2CCN(c3ccc(I)cn3)CC2)CC1 [Example 2-12],2360
11,CC(C)OC(=O)N1CCC(ON=C2CCN(c3cc(F)c(Cn4nccn4)cc3F)CC2)CC1 [Example 14-13],16
12,CC(C)OC(=O)N1CCC(ON=C2CCN(c3nc(Cl)ncc3Cl)CC2)CC1 [Example 2-49],170
13,"CC(=O)N(C)Cc1cc(F)c(N2CCC(=NOC3CCN(C(=O)OC(C)C)CC3)CC2)cc1F [Example 18-1, 4-(1-{4-[(Acetyl-methyl-amino)-methyl]-2,5-difluoro-phenyl}-piperidin-4-ylideneaminooxy)-piperidine-1-carboxylic acid isopropyl ester]",127
14,CCOC(=O)NCc1cc(F)c(N2CCC(=NOC3CCN(C(=O)OC(C)C)CC3)CC2)cc1F [Example 16-4],70
15,CC(C)OC(=O)N1CCC(ON=C2CCN(c3cc(F)c(CNS(C)(=O)=O)cc3F)CC2)CC1 [Example 16-3],51
16,CC(C)OC(=O)N1CCC(ON=C2CCN(c3cc(F)c(-c4cncnc4)cc3F)CC2)CC1 [Example 27-6],243
17,CC(C)OC(=O)N1CCC(ON=C2CCN(c3ncnc(F)c3F)CC2)CC1 [Example 2-58],603

# Same assay, conditions: the 15th table; read-out: EC50
row,SMILES,EC50 [nM]
1,CC(C)OC(=O)N1CCC(ON=C2CCN(c3cc(F)c(C(=O)NCCC4CCNCC4)cc3F)CC2)CC1 [Example 29-32],73
2,CC(C)OC(=O)N1CCC(ON=C2CCN(c3cc(F)c(C(=O)N4CCCCC4CN)cc3F)CC2)CC1 (stereo not drawn) [Example 29-57],185
3,CC(C)OC(=O)N1CCC(ON=C2CCN(c3cc(F)c(C(=O)N4CCN(C)CC4)cc3F)CC2)CC1 [Example 29-4],80

# Same assay, conditions: the 19th table; unit inferred; read-out: EC 50
row,SMILES,EC50 [nM]
1,CCc1cnc(N2CCC(ON=C3CCN(c4cc(F)c(C(=O)N5CCNC[C@@H]5C)cc4F)CC3)CC2)nc1 [Example 29-110],256

# Same assay, conditions: the 25th table; read-out: EC50
row,SMILES,EC50 [nM]
1,"COC(=O)/C=C/c1cc(F)c(N2CCC(=NOC3CCN(C(=O)OC(C)C)CC3)CC2)cc1F [Example 39-1, 4-{1-[2,5-Difluoro-4-((E)-2-methoxycarbonyl-vinyl)-phenyl]-piperidin-4-ylideneaminooxy}-piperidine-1-carboxylic acid isopropyl ester]",46

# Same assay, conditions: the 28th table; read-out: EC50
row,SMILES,EC50 [nM]
1,CC(C)OC(=O)N1CCC(ON=C2CCN(c3ncc(N4CCCC4=O)cc3F)CC2)CC1 [Example 51-3],401

# Same assay, conditions: the 29th table; read-out: EC50
row,SMILES,EC50 [nM]
1,"CC(C)OC(=O)N1CCC(ON=C2CCN(c3ccc(CO)c(F)c3)CC2)CC1 [Example 52-1, 4-[1-(3-Fluoro-4-hydroxymethyl-phenyl)-piperidin-4-ylideneaminooxy]-piperidine-1-carboxylic acid isopropyl ester]",> 10000

# Same assay, conditions: the 30th table; read-out: EC50
row,SMILES,EC50 [nM]
1,CC(C)OC(=O)N1CCC(ON=C2CCN(c3ncc(Cn4ccnn4)cc3F)CC2)CC1 [Example 54-2],1060

# Same assay, conditions: the 32nd table; read-out: EC50
row,SMILES,EC50 [nM]
1,CS(=O)(=O)c1ccc(N2CCC(=NOC3CCN(c4ccc(S(C)(=O)=O)cc4F)CC3)CC2)c(F)c1 [Example 63-22],397
2,CS(=O)(=O)c1ccc(N2CCC(=NOC3CCN(c4ccncc4)CC3)CC2)c(F)c1 [Example 63-4],> 10000
3,COC(=O)c1cnc(N2CCC(ON=C3CCN(c4ccc(S(C)(=O)=O)cc4F)CC3)CC2)nc1 [Example 63-21],260

# Same assay, conditions: the 33rd table; read-out: EC50
row,SMILES,EC50 [nM]
1,Cc1ncccc1COC(=O)N1CCC(ON=C2CCN(c3ccc(S(C)(=O)=O)cc3F)CC2)CC1 [Example 64-26],> 10000
2,CCOCCOC(=O)N1CCC(ON=C2CCN(c3ccc(S(C)(=O)=O)cc3F)CC2)CC1 [Example 64-10],1280
3,CC[C@H](C)COC(=O)N1CCC(ON=C2CCN(c3ccc(S(C)(=O)=O)cc3F)CC2)CC1 [Example 64-48],54

# Same assay, conditions: the 34th table, compounds 65-1 to 65-24; read-out: EC50
row,SMILES,EC50 [nM]
1,CC(C)COC(=O)N1CCC(ON=C2CCN(c3ccc(S(C)(=O)=O)cc3F)CC2)CC1 [Example 65-13],82

# Same assay, conditions: the 36th table, compounds 66-1 to 66-51; read-out: EC50
row,SMILES,EC50 [nM]
1,Cc1ccc(CN2CCC(ON=C3CCN(c4ccc(S(C)(=O)=O)cc4F)CC3)CC2)cc1 [Example 66-26],288
2,Cc1nc(CN2CCC(ON=C3CCN(c4ccc(S(C)(=O)=O)cc4F)CC3)CC2)c[nH]1 [Example 66-8],> 10000
3,CS(=O)(=O)c1ccc(N2CCC(=NOC3CCN(Cc4ccc(OC(F)(F)F)cc4)CC3)CC2)c(F)c1 [Example 66-42],503
4,CC(C)c1ccc(CN2CCC(ON=C3CCN(c4ccc(S(C)(=O)=O)cc4F)CC3)CC2)cc1 [Example 66-32],332
5,CS(=O)(=O)c1ccc(N2CCC(=NOC3CCN(Cc4ccc(C(F)(F)F)cc4)CC3)CC2)c(F)c1 [Example 66-31],354

# Same assay, conditions: the 37th table, compounds 66-52 to 66-64; read-out: EC50
row,SMILES,EC50 [nM]
1,CCc1ccc([C@H](C)N2CCC(ON=C3CCN(c4cc(F)c(S(C)(=O)=O)cc4F)CC3)CC2)cc1 [Example 66-63],294

# Same assay, conditions: the 43rd table, compounds 75-1 to 75-38; read-out: EC50
row,SMILES,EC50 [nM]
1,CC(C)OC(=O)N1CCC(ON=C2CCN(c3cc(F)c(CC(=O)NC4CCNCC4)cc3F)CC2)CC1 [Example 75-18],98
2,CC(C)OC(=O)N1CCC(ON=C2CCN(c3cc(F)c(CC(=O)N4CCC(CN5CCCC5)CC4)cc3F)CC2)CC1 [Example 75-34],146
3,CC(C)OC(=O)N1CCC(ON=C2CCN(c3cc(F)c(CC(=O)N4CCC[C@@H](N)C4)cc3F)CC2)CC1 [Example 75-14],51
4,CC(C)OC(=O)N1CCC(ON=C2CCN(c3cc(F)c(CC(=O)N4CCC[C@H]4CN4CCCC4)cc3F)CC2)CC1 [Example 75-29],2910

# Same assay, conditions: the 44th table, compounds 77-1 to 77-14; read-out: EC50
row,SMILES,EC50 [nM]
1,CCc1cnc(N2CCC(ON=C3CCN(c4cc(F)c(CC(=O)NC5CCNCC5)cc4F)CC3)CC2)nc1 [Example 77-10],20

# Source: patent US8293729B2 (Boehringer Ingelheim International GmbH, priority 2009, dated 2012)
